In patent US11649255B2, “Indazoles as hematopoietic progenitor kinase 1 (HPK1) inhibitors and methods using same” (1st Biotherapeutics, Inc., priority 2020, dated 2023):

Target: recombinant human HPK1 (Homo sapiens (Human), UniProt Q92918)
Assay: HPK1 kinase assay (ADP-Glo)
Assay type: biochemical
Settings: 25 μM ATP, MBP substrate
In short: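 Activity was read as ADP formed, detected by ADP-Glo luminescence after the reaction of 5 ng recombinant human HPK1 with MBP and ATP (stocks 0.5 μg/μl and 25 μM) for 40 min at 30 °C. Buffer was Tris pH 7.5 with MgCl2, BSA and DTT, with compound in 0.5% DMSO. IC50 came from inhibition curves.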

recombinant human HPK1, sequence (Q92918 whole entry): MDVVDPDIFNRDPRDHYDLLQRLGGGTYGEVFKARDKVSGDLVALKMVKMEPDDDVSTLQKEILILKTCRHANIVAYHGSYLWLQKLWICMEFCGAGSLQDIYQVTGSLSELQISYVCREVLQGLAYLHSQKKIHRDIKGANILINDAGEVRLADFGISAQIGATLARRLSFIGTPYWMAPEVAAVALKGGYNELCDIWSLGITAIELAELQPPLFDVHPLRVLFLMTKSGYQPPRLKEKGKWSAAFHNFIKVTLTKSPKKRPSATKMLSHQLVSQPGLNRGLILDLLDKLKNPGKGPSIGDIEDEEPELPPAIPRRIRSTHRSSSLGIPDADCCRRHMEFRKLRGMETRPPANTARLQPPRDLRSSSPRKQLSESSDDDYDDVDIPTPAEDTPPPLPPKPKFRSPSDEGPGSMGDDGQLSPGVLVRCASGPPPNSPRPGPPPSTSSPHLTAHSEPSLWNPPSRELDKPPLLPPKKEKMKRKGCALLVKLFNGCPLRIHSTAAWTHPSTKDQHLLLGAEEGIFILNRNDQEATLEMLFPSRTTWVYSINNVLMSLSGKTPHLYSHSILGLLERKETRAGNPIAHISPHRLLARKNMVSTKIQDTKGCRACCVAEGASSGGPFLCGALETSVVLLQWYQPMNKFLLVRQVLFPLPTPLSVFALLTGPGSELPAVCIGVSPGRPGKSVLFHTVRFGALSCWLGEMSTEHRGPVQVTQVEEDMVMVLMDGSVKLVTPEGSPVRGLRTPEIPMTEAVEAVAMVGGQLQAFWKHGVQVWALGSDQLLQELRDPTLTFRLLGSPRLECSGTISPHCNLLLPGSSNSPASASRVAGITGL

| IC50 | SMILES |
| --- | --- |
| 101 to 500 nM | O=C(Nc1nc2ccc(-c3c(Br)c(F)cc4[nH]ncc34)cc2s1)[C@@H]1C[C@@H]1F [Example 42, (1S,2S)-N-(6-(5-bromo-6-fluoro-1H-indazol-4-yl)benzo[d]thiazol-2-yl)-2-fluorocyclopropane-1-carboxamide] |
| < 100 nM | Cc1c(F)c(Cl)c2[nH]ncc2c1-c1ccc2nc(NC(=O)[C@@H]3C[C@@H]3F)sc2c1 [Example 51, (1S,2S)-N-(6-(7-chloro-6-fluoro-5-methyl-1H-indazol-4-yl)benzo[d]thiazol-2-yl)-2-fluorocyclopropane-1-carboxamide] |
| < 100 nM | CCc1c(F)c(C(F)(F)F)c2[nH]ncc2c1-c1ccn2nc(NC(=O)[C@@H]3C[C@@H]3F)cc2c1 [Example 585, (1S,2S)-N-(5-(5-ethyl-6-fluoro-7-(trifluoromethyl)-1H-indazol-4-yl)pyrazolo[1,5-a]pyridin-2-yl)-2-fluorocyclopropane-1-carboxamide] |
| 101 to 500 nM | CNC(C)c1c(F)c(Cl)c(-c2ccc3nc(NC(=O)[C@@H]4C[C@@H]4F)cn3c2)c2cn[nH]c12 (stereo partly drawn) [Example 402, (1S,2S)-N-(6-(5-chloro-6-fluoro-7-(1-(methylamino)ethyl)-1H-indazol-4-yl)imidazo[1,2-a]pyridin-2-yl)-2-fluorocyclopropane-1-carboxamide] |
| 101 to 500 nM | O=C(Nc1nc2ccc(-c3c(Cl)c(F)c(N4CCNCC4)c4[nH]ncc34)cc2s1)[C@@H]1C[C@@H]1F [Example 76, (1S,2S)-N-(6-(5-chloro-6-fluoro-7-(piperazin-1-yl)-1H-indazol-4-yl)benzo[d]thiazol-2-yl)-2-fluorocyclopropane-1-carboxamide] |
| 101 to 500 nM | CNC(=O)c1c(F)c(C)c(-c2ccc3nc(NC(=O)[C@@H]4C[C@@H]4F)sc3n2)c2cn[nH]c12 [Example 206, 6-fluoro-4-(2-((1S,2S)-2-fluorocyclopropane-1-carboxamido)thiazolo[5,4-b]pyridin-5-yl)-N,5-dimethyl-1H-indazole-7-carboxamide] |
| < 100 nM | CCN(C)c1c(F)c(SC)c(-c2ccc3nc(NC(=O)[C@@H]4C[C@@H]4F)sc3c2)c2cn[nH]c12 [Example 138, (1S,2S)-N-(6-(7-(ethyl(methyl)amino)-6-fluoro-5-(methylthio)-1H-indazol-4-yl)benzo[d]thiazol-2-yl)-2-fluorocyclopropane-1-carboxamide] |
| < 100 nM | O=C(Nc1cn2cc(-c3c(Cl)c(F)c(C4CCCC4O)c4[nH]ncc34)ccc2n1)[C@@H]1C[C@@H]1F (stereo partly drawn) [Example 410, (1S,2S)-N-(6-(5-chloro-6-fluoro-7-(2-hydroxycyclopentyl)-1H-indazol-4-yl)imidazo[1,2-a]pyridin-2-yl)-2-fluorocyclopropane-1-carboxamide] |
| < 100 nM | CNCCN(C)c1c(F)c(Cl)c(-c2ccc3nc(NC(=O)[C@@H]4C[C@@H]4F)sc3c2)c2cn[nH]c12 [Example 92, (1S,2S)-N-(6-(5-chloro-6-fluoro-7-(methyl(2-(methylamino)ethyl)amino)-1H-indazol-4-yl)benzo[d]thiazol-2-yl)-2-fluorocyclopropane-1-carboxamide] |
| 101 to 500 nM | C[S+]([O-])c1c(F)c(Cl)c(-c2ccc3nc(NC(=O)[C@@H]4C[C@@H]4F)sc3n2)c2cn[nH]c12 (stereo partly drawn) [Example 180, (1S,2S)-N-(5-(5-chloro-6-fluoro-7-(methylsulfinyl)-1H-indazol-4-yl)thiazolo[5,4-b]pyridin-2-yl)-2-fluorocyclopropane-1-carboxamide] |
| < 100 nM | C=Cc1cc(C)c(-c2ccc3nc(NC(=O)[C@@H]4C[C@@H]4F)cn3c2)c2cn[nH]c12 [Example 264, (1S,2S)-2-fluoro-N-(6-(5-methyl-7-vinyl-1H-indazol-4-yl)imidazo[1,2-a]pyridin-2-yl)cyclopropane-1-carboxamide] |
| < 100 nM | CCOc1cc(C)c(-c2ccc3nc(NC(=O)[C@@H]4C[C@@H]4F)sc3c2)c2cn[nH]c12 [Example 101, (1S,2S)-N-(6-(7-ethoxy-5-methyl-1H-indazol-4-yl)benzo[d]thiazol-2-yl)-2-fluorocyclopropane-1-carboxamide] |
| 101 to 500 nM | Cc1ccc2[nH]ncc2c1-c1ccc2nc(NC(=O)C3CC3)sc2c1 [Example 1, N-(6-(5-methyl-1H-indazol-4-yl)benzo[d]thiazol-2-yl)cyclopropanecarboxamide] |
| < 100 nM | CN1CCN(c2c(F)c(Cl)c(-c3ccn4nc(NC(=O)[C@@H]5C[C@@H]5F)cc4c3)c3cn[nH]c23)CC1 [Example 495, (1S,2S)-N-(5-(5-chloro-6-fluoro-7-(4-methylpiperazin-1-yl)-1H-indazol-4-yl)pyrazolo[1,5-a]pyridin-2-yl)-2-fluorocyclopropane-1-carboxamide] |
| > 1000 nM | C#Cc1n[nH]c2cc(F)c(C)c(-c3ccn4nc(NC(=O)[C@@H]5C[C@@H]5F)cc4c3)c12 [Example 472, (1S,2S)-N-(5-(3-ethynyl-6-fluoro-5-methyl-1H-indazol-4-yl)pyrazolo[1,5-a]pyridin-2-yl)-2-fluorocyclopropane-1-carboxamide] |
| 101 to 500 nM | CS(=O)(=O)c1c(F)c(Cl)c(-c2ccc3nc(NC(=O)[C@@H]4C[C@@H]4F)cn3c2)c2cn[nH]c12 [Example 267, (1S,2S)-N-(6-(5-chloro-6-fluoro-7-(methylsulfonyl)-1H-indazol-4-yl)imidazo[1,2-a]pyridin-2-yl)-2-fluorocyclopropane-1-carboxamide] |
| < 100 nM | CN(c1c(F)c(Cl)c(-c2ccn3nc(NC(=O)[C@@H]4C[C@@H]4F)cc3c2)c2cn[nH]c12)C1CCC(N)C1 (stereo partly drawn) [Example 527, (1S,2S)-N-(5-(7-((3-aminocyclopentyl)(methyl)amino)-5-chloro-6-fluoro-1H-indazol-4-yl)pyrazolo[1,5-a]pyridin-2-yl)-2-fluorocyclopropane-1-carboxamide] |
| < 100 nM | CC(=O)N(C)c1c(F)c(Cl)c(-c2ccc3nc(NC(=O)[C@@H]4C[C@@H]4F)sc3n2)c2cn[nH]c12 [Example 189, (1S,2S)-N-(5-(5-chloro-6-fluoro-7-(N-methylacetamido)-1H-indazol-4-yl)thiazolo[5,4-b]pyridin-2-yl)-2-fluorocyclopropane-1-carboxamide] |
| > 1000 nM | CN(C)c1ccc2[nH]ncc2c1-c1ccc2nc(NC(=O)C3CC3)cn2c1 [Example 230, N-(6-(5-(dimethylamino)-1H-indazol-4-yl)imidazo[1,2-a]pyridin-2-yl)cyclopropanecarboxamide] |
| 101 to 500 nM | CCc1c(F)c(SCC(=O)O)c2[nH]ncc2c1-c1ccc2nc(NC(=O)[C@@H]3C[C@@H]3F)sc2n1 [Example 168, 2-((5-ethyl-6-fluoro-4-(2-((1S,2S)-2-fluorocyclopropane-1-carboxamido)thiazolo[5,4-b]pyridin-5-yl)-1H-indazol-7-yl)thio)acetic acid] |
| < 100 nM | CSc1c(F)cc(-c2ccn3nc(NC(=O)[C@@H]4C[C@@H]4F)cc3c2)c2cn[nH]c12 [Example 589, (1S,2S)-2-fluoro-N-(5-(6-fluoro-7-(methylthio)-1H-indazol-4-yl)pyrazolo[1,5-a]pyridin-2-yl)cyclopropane-1-carboxamide] |
| < 100 nM | Cc1c(F)c(Br)c2[nH]ncc2c1-c1ccn2nc(NC(=O)[C@@H]3C[C@@H]3F)cc2c1 [Example 487, (1S,2S)-N-(5-(7-bromo-6-fluoro-5-methyl-1H-indazol-4-yl)pyrazolo[1,5-a]pyridin-2-yl)-2-fluorocyclopropane-1-carboxamide] |
| 101 to 500 nM | CS(=O)(=O)c1c(F)c(Cl)c(-c2ccc3nc(NC(=O)[C@@H]4C[C@@H]4F)sc3n2)c2cn[nH]c12 [Example 185, (1S,2S)-N-(5-(5-chloro-6-fluoro-7-(methylsulfonyl)-1H-indazol-4-yl)thiazolo[5,4-b]pyridin-2-yl)-2-fluorocyclopropane-1-carboxamide] |
| < 100 nM | COc1c(F)c(Cl)c(-c2ccc3nc(NC(=O)[C@@H]4C[C@@H]4F)sc3c2)c2cn[nH]c12 [Example 80, (1S,2S)-N-(6-(5-chloro-6-fluoro-7-methoxy-1H-indazol-4-yl)benzo[d]thiazol-2-yl)-2-fluorocyclopropane-1-carboxamide] |
| < 100 nM | Cc1cccn1-c1c(F)c(Cl)c(-c2ccn3nc(NC(=O)[C@@H]4C[C@@H]4F)cc3c2)c2cn[nH]c12 [Example 644, (1S,2S)-N-(5-(5-chloro-6-fluoro-7-(2-methyl-1H-pyrrol-1-yl)-1H-indazol-4-yl)pyrazolo[1,5-a]pyridin-2-yl)-2-fluorocyclopropane-1-carboxamide] |
| < 100 nM | CCOc1c(F)c(CC)c(-c2ccc3nc(NC(=O)[C@@H]4C[C@@H]4F)sc3n2)c2cn[nH]c12 [Example 178, (1S,2S)-N-(5-(7-ethoxy-5-ethyl-6-fluoro-1H-indazol-4-yl)thiazolo[5,4-b]pyridin-2-yl)-2-fluorocyclopropane-1-carboxamide] |
| < 100 nM | CN(CC1CNC1)c1c(F)c(Cl)c(-c2ccc3nc(NC(=O)[C@@H]4C[C@@H]4F)sc3c2)c2cn[nH]c12 [Example 94, (1S,2S)-N-(6-(7-((azetidin-3-ylmethyl)(methyl)amino)-5-chloro-6-fluoro-1H-indazol-4-yl)benzo[d]thiazol-2-yl)-2-fluorocyclopropanecarboxamide] |
| < 100 nM | CCc1c(F)c(SC(C)(C)C#N)c2[nH]ncc2c1-c1ccn2nc(NC(=O)[C@@H]3C[C@@H]3F)cc2c1 [Example 603, (1S,2S)-N-(5-(7-((2-cyanopropan-2-yl)thio)-5-ethyl-6-fluoro-1H-indazol-4-yl)pyrazolo[1,5-a]pyridin-2-yl)-2-fluorocyclopropane-1-carboxamide] |
| < 100 nM | O=C(Nc1cn2cc(-c3c(Cl)c(F)c(NCC4CC4)c4[nH]ncc34)ccc2n1)[C@@H]1C[C@@H]1F [Example 421, (1S,2S)-N-(6-(5-chloro-7-((cyclopropylmethyl)amino)-6-fluoro-1H-indazol-4-yl)imidazo[1,2-a]pyridin-2-yl)-2-fluorocyclopropane-1-carboxamide] |
